Assay results published in ChEMBL document CHEMBL6074716, “Discovery of SET domain-binding primary alkylamine-tethered degraders for the simultaneous degradation of NSD2-long and RE-IIBP isoforms” (Eur J Med Chem, 2025).
In brackets after ≈: the same amount, converted by molar mass. Values belong to the compound of their own block, whether it stands above or below them. Activity calls are given as the source filed them. The calls are words filed in the database; no cut-off is given here.

Columns and labels:
KMS-11 [1] = test: Antiproliferative activity against human KMS-11 cells assessed as inhibition of cell viability incubated for 8 to 12 days by Cell Titer Glo assay; assay type: functional, cell-based
[2] = Antiproliferative activity against HEK293T cells assessed as inhibition of cell viability incubated for 8 to 12 days by Cell Titer Glo assay; assay type: toxicity, cell-based, HEK-293T; conditions: human
[3] = Solubility of compound in water measured after 4 hrs by HPLC analysis; assay type: physicochemical
[4] = Metabolic stability in human liver microsomes assessed as half life at 1 uM preincubated for 5 mins followed by NADPH addition measured for 5 to 60 mins by LC-MS/MS analysis; assay type: ADME, Microsome; conditions: time 10-65 min
[5] = Metabolic stability in human liver microsomes assessed as hepatic clearance at 1 uM preincubated for 5 mins followed by NADPH addition measured for 5 to 60 mins by LC-MS/MS analysis; assay type: ADME, Microsome; conditions: time 10-65 min
[6] = Metabolic stability in human liver microsomes assessed as hepatic extraction ratio at 1 uM preincubated for 5 mins followed by NADPH addition measured for 5 to 60 mins by LC-MS/MS analysis; assay type: ADME, Microsome; conditions: time 10-65 min, read-out: ERH
KMS-11 [7] = test: Induction of primary alkylamine-tethering degradation of NSD2 in human KMS-11 cells at 1 to 4 uM by Western blot analysis; assay type: cell-based; conditions: dose 1-4 µM
[8] = biological target: T1, Histone-lysine N-methyltransferase NSD2 (Homo sapiens, UniProt O96028); test: Binding affinity to CM5 chip-immobilizes NSD2 (unknown origin) assessed as dissociation constant by SPR analysis
T1 sequence (O96028 whole entry): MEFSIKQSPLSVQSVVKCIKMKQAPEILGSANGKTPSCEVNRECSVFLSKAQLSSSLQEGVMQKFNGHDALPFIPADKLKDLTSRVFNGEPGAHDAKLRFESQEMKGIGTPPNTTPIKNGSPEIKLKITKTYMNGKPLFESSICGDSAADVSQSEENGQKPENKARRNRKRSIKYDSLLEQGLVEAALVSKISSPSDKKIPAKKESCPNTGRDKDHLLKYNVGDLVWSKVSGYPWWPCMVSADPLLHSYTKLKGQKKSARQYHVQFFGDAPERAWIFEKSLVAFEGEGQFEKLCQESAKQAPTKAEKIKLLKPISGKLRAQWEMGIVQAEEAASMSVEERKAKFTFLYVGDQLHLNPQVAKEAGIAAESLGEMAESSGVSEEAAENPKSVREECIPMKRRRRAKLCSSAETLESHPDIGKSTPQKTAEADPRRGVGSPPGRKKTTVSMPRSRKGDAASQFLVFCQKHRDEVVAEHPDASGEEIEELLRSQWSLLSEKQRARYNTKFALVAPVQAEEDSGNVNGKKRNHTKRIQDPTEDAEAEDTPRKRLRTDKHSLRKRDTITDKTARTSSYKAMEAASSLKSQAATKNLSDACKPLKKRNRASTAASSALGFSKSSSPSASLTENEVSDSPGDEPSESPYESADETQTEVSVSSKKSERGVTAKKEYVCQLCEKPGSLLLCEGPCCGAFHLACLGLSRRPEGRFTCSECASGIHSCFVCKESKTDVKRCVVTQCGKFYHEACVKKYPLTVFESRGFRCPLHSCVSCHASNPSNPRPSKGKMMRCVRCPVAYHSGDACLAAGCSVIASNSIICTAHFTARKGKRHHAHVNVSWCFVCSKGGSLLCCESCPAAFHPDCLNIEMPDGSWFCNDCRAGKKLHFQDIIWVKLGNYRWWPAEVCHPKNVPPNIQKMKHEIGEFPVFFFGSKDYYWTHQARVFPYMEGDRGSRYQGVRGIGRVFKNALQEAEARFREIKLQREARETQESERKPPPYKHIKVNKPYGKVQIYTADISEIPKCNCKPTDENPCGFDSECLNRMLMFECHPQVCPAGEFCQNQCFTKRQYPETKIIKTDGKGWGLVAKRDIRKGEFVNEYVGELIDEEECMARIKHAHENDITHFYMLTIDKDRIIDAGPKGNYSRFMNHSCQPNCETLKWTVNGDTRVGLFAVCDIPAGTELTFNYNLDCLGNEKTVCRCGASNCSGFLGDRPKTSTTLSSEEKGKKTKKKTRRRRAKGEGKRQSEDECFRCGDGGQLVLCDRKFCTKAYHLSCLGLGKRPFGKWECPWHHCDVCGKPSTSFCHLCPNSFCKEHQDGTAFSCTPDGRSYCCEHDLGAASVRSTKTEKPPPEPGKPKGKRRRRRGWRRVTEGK

KMS-11 [9] = test: Induction of primary alkylamine-tethering degradation of NSD2 in human KMS-11 cells at 0.1 to 2 uM by Western blot analysis; assay type: cell-based; conditions: dose 0.1-2 µM
[10] = biological target: von Hippel-Lindau disease tumor suppressor/Histone-lysine N-methyltransferase NSD2 (Homo sapiens) (UniProt O96028+P40337); test: PROTAC activity at VHL/NSD2 in human KMS-11 cells assessed as induction of protein degradation upto 50 uM by Western blot analysis; assay type: cell-based
[11] = (§1) Induction of primary alkylamine-tethering degradation of NSD2 Long isoform in human KMS-11 cells by Western blot analysis; assay type: cell-based
KMS-11 [12] = test: as §1; assay type: cell-based; conditions: dose <= 5.0 µM
[13] = biological target: T2, Histone-lysine N-methyltransferase NSD2 (Homo sapiens) (UniProt O96028); test: (§2) Induction of primary alkylamine-tethering degradation of NSD2 RE-IIBP isoform in human KMS-11 cells by Western blot analysis; assay type: cell-based; conditions: dose <= 5.0 µM
T2 sequence (whole entry): T1 sequence (O96028 whole entry)

[14] = biological target: T1, Histone-lysine N-methyltransferase NSD2; test: as §2; assay type: cell-based
KMS-11 [15] = test: Induction of primary alkylamine-tethering degradation of NSD2 Long isoform in human KMS-11 cells upto 5 uM by Western blot analysis; assay type: cell-based
[16] = biological target: T2, Histone-lysine N-methyltransferase NSD2 (Homo sapiens); test: Induction of primary alkylamine-tethering degradation of NSD2 RE-IIBP isoform in human KMS-11 cells upto 5 uM by Western blot analysis; assay type: cell-based
KMS-11 [17] = test: Induction of primary alkylamine-tethering degradation of NSD2 in human KMS-11 cells at 5 uM by Western blot analysis; assay type: cell-based; conditions: time 6-48 hrs
KMS-11 [18] = test: Induction of primary alkylamine-tethering degradation of NSD2 Long isoform in human KMS-11 cells at 0.1 to 2 uM by Western blot analysis; assay type: cell-based; conditions: dose 0.1-2 µM
[19] = biological target: T2, Histone-lysine N-methyltransferase NSD2 (Homo sapiens); test: Induction of primary alkylamine-tethering degradation of NSD2 RE-IIBP isoform in human KMS-11 cells at 0.1 to 2 uM by Western blot analysis; assay type: cell-based; conditions: dose 0.1-2 µM
KMS-11 [20] = test: Induction of primary alkylamine-tethering degradation of NSD1 in human KMS-11 cells at 0.1 to 2 uM by Western blot analysis; assay type: cell-based; conditions: dose 0.1-2 µM
KMS-11 [21] = test: Induction of primary alkylamine-tethering degradation of NSD3 in human KMS-11 cells at 0.1 to 2 uM by Western blot analysis; assay type: cell-based; conditions: dose 0.1-2 µM
KMS-11 [22] = test: Induction of primary alkylamine-tethering degradation of NSD2 in human KMS-11 cells assessed as decrease in H3K36 methylation upto 2.5 uM by Western blot analysis; assay type: cell-based
22Rv1 = test: Induction of primary alkylamine-tethering degradation of NSD2 in human 22Rv1 cells assessed as decrease in H3K36 methylation upto 8 uM by Western blot analysis; assay type: cell-based
KMS-11 [23] = test: Induction of primary alkylamine-tethering degradation of NSD2 in human KMS-11 cells assessed as decrease in JAM2 mRNA level at 1.25 to 2.5 uM incubated for 2 days by qPCR analysis; assay type: cell-based; conditions: dose 1.25-2.5 µM, time 2.0 day
KMS-11 [24] = test: Induction of primary alkylamine-tethering degradation of NSD2 in human KMS-11 cells assessed as decrease in MET mRNA level at 1.25 to 2.5 uM incubated for 2 days by qPCR analysis; assay type: cell-based; conditions: dose 1.25-2.5 µM, time 2.0 day
KMS-11 [25] = test: Induction of primary alkylamine-tethering degradation of NSD2 in human KMS-11 cells assessed as decrease in PAK1 mRNA level at 1.25 to 2.5 uM incubated for 2 days by qPCR analysis; assay type: cell-based; conditions: dose 1.25-2.5 µM, time 2.0 day
KMS-11 [26] = test: Induction of primary alkylamine-tethering degradation of NSD2 in human KMS-11 cells assessed as decrease in RRAS2 mRNA level at 1.25 to 2.5 uM incubated for 2 days by qPCR analysis; assay type: cell-based; conditions: dose 1.25-2.5 µM, time 2.0 day
KMS-11 [27] = test: Induction of primary alkylamine-tethering degradation of NSD2 in human KMS-11 cells assessed as decrease in BACE2 mRNA level at 1.25 to 2.5 uM incubated for 2 days by qPCR analysis; assay type: cell-based; conditions: dose 1.25-2.5 µM, time 2.0 day
KMS-11 [28] = test: Induction of primary alkylamine-tethering degradation of NSD2 in human KMS-11 cells assessed as decrease in CA2 mRNA level at 1.25 to 2.5 uM incubated for 2 days by qPCR analysis; assay type: cell-based; conditions: dose 1.25-2.5 µM, time 2.0 day
KMS-11 [29] = test: Induction of primary alkylamine-tethering degradation of NSD2 in human KMS-11 cells assessed as decrease in IGF2BP2 mRNA level at 1.25 to 2.5 uM incubated for 2 days by qPCR analysis; assay type: cell-based; conditions: dose 1.25-2.5 µM, time 2.0 day
KMS-11 [30] = test: Induction of primary alkylamine-tethering degradation of NSD2 in human KMS-11 cells assessed as decrease in CR2 mRNA level at 1.25 to 2.5 uM incubated for 2 days by qPCR analysis; assay type: cell-based; conditions: dose 1.25-2.5 µM, time 2.0 day

von Hippel-Lindau disease tumor suppressor/Histone-lysine N-methyltransferase NSD2 (Homo sapiens), sequence (P40337 whole entry, looked up, one chain of several, canonical isoform): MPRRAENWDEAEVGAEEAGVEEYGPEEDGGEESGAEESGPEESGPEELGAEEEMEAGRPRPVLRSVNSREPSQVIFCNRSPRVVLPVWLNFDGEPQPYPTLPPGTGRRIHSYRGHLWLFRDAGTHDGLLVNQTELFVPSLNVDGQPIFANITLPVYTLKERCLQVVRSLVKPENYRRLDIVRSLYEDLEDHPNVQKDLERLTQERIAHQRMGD

solubility at 4 h [3]: 490 µg/mL (≈ 979 µM)
half-life at 1 µM [4]: 22.3 min
CLhep predicted at 1 µM [5]: 18.6 mL/min/kg
hepatic extraction ratio at 1 µM [6]: 0.898
SMILES: Nc1ncnc2c1ncn2Cc1cc(-c2ccc(F)c(F)c2)ncc1N1CCC[C@](N)(CC(F)F)C1
IC50 (KMS-11 [1]): 4.7 µM
IC50 [2]: 8.45 µM

SMILES: NCCCCCCCCCNC(=O)COc1cc(-c2cc(Cn3cnc4c(N)ncnc43)c(N3CCC[C@](N)(CC(F)F)C3)cn2)ccc1F
Activity (KMS-11 [7]): inactive

SMILES: NCCCCCCCCCCCNC(=O)COc1cc(-c2cc(Cn3cnc4c(N)ncnc43)c(N3CCCC(N)(CC(F)F)C3)cn2)ccc1F (racemic)
Activity (KMS-11 [7]): Active

SMILES: Nc1ncnc2c1ncn2Cc1cc(-c2ccc(F)c(OCC(=O)NCCCCCCCCCCCNC(=O)c3ccccc3)c2)ncc1N1CCC[C@](N)(CC(F)F)C1
Activity (KMS-11 [7]): Not active; Exhibited Minimal Activity

Kd [8]: > 100 µM
SMILES: NCCCCCCCCCCCNC(=O)COc1cc(-c2cc(Cn3cnc4c(N)ncnc43)c(N3CCC[C@@](N)(CC(F)F)C3)cn2)ccc1F
Activity (KMS-11 [9]): inactive

SMILES: NCCCCCCNC(=O)COc1cc(-c2cc(Cn3cnc4c(N)ncnc43)c(N3CCC[C@](N)(CC(F)F)C3)cn2)ccc1F
Activity (KMS-11 [7]): inactive

SMILES: NCCCCCCCNC(=O)COc1cc(-c2cc(Cn3cnc4c(N)ncnc43)c(N3CCC[C@](N)(CC(F)F)C3)cn2)ccc1F
Activity (KMS-11 [7]): inactive

Activity [10]: Active
SMILES: Cc1ncsc1-c1ccc([C@H](C)NC(=O)[C@@H]2C[C@@H](O)CN2C(=O)[C@@H](NC(=O)CCCCCCCCCCCNC(=O)COc2cc(-c3cc(Cn4cnc5c(N)ncnc54)c(N4CCCC(N)(CC(F)F)C4)cn3)ccc2F)C(C)(C)C)cc1 (some centres not stated)

SMILES: CNCCCCCCCCCCCNC(=O)COc1cc(-c2cc(Cn3cnc4c(N)ncnc43)c(N3CCC[C@](N)(CC(F)F)C3)cn2)ccc1F
Activity (KMS-11 [7]): Not active; Exhibited Minimal Activity

Kd [8]: 8.77 µM
DC50 [11]: 1.48 µM
Activity [13]: Dose-dependent-effect
DC50 [14]: 0.8 µM
Activity [16]: 80%
Activity [19]: Active
solubility at 4 h [3]: 470 µg/mL (≈ 648 µM)
half-life at 1 µM [4]: 5.37 min
CLhep predicted at 1 µM [5]: 20.1 mL/min/kg
hepatic extraction ratio at 1 µM [6]: 0.973
SMILES: NCCCCCCCCCCCNC(=O)COc1cc(-c2cc(Cn3cnc4c(N)ncnc43)c(N3CCC[C@](N)(CC(F)F)C3)cn2)ccc1F
Activity (KMS-11 [9]): Active
Activity (KMS-11 [12]): Dose-dependent-effect
Activity (KMS-11 [15]): 80%
Activity (KMS-11 [17]): Time-dependent-effect
Activity (KMS-11 [18]): Active
Activity (KMS-11 [20]): Not active; Exhibited Moderate Degradation
Activity (KMS-11 [21]): inactive
Activity (KMS-11 [22]): Active
Activity (22Rv1): Active
IC50 (KMS-11 [1]): 0.9 µM
IC50 [2]: > 100 µM
Activity (KMS-11 [23]): Active
Activity (KMS-11 [24]): Active
Activity (KMS-11 [25]): Active
Activity (KMS-11 [26]): Active
Activity (KMS-11 [27]): Active
Activity (KMS-11 [28]): Active
Activity (KMS-11 [29]): Active
Activity (KMS-11 [30]): Active

SMILES: NCCCCCCCCCCCCNC(=O)COc1cc(-c2cc(Cn3cnc4c(N)ncnc43)c(N3CCC[C@](N)(CC(F)F)C3)cn2)ccc1F
Activity (KMS-11 [7]): inactive

SMILES: NCCCCCNC(=O)COc1cc(-c2cc(Cn3cnc4c(N)ncnc43)c(N3CCC[C@](N)(CC(F)F)C3)cn2)ccc1F
Activity (KMS-11 [7]): inactive

SMILES: NCCCNC(=O)COc1cc(-c2cc(Cn3cnc4c(N)ncnc43)c(N3CCC[C@](N)(CC(F)F)C3)cn2)ccc1F
Activity (KMS-11 [7]): inactive
